Assay results from patent US20230381170A1, “METHOD FOR TREATING ALS/FTD THROUGH DEGRADATION OF RNA REPEAT EXPANSION” (University of Florida Research Foundation, Incorporated, priority 2020, published 2023).

How the values were obtained:
[1] = system: Poly(GP); test: poly(GP) in c9ALS iPSC-derived spinal neurons; format: cell-based, human
Description: iPSCs were differentiated into spinal neuron cells using a previously the previously described direct induced motor neuron (diMNs) differentiation protocol (58) with modifications. Briefly, iPSCs were plated into Matrigel-coated 100 mm dishes (30-40% confluence). Neuroepithelial induction was performed by replacing the iPSC maintenance medium with Stage 1 medium [47.5% IMDM (Iscove's Modified Dulbecco's Medium) medium, 47.5% F12 medium, 1% NEAA (Non-Essential Amino Acid) (Life Technologies), 2% B27 (Invitrogen), 1% N2, 1% PSA (Penicillin-Streptomycin-Amphotericin), 0.2 μM LDN193189 (Stemgent), 10 μM SB431542 ([…] Technologies) and 3 μM CHIR99021 (Sigma-Aldrich)]. After daily medium changes for 6 days, cells were detached with Accutase and seeded into 6-well plates (1.5×10^6 cells/well) in 3 mL Stage 2 medium. […]
Measuring Poly(GP) Levels by Electrochemiluminescence. […] Protein concentration was measured by Pierce™ BCA Protein Assay Kit.
Levels of poly(GP) were measured using Meso Scale Discovery MSD Gold 96-well Streptavidin SECTOR plates. […] The conjugated antibodies were desalted with 40K Zeba™ Spin Desalting Columns (Thermo Fisher Scientific), and their concentrations were determined by Pierce™ BCA Protein Assay Kit. […]

[2] = system: r(G4C2)8; test: In vitro Chem-CLIP and C-Chem-CLIP; format: binding; settings: constant 4 (500 nM), increasing concentrations of competitor
Description: In vitro Chemical Cross-linking and Isolation by Pull-Down (Chem-CLIP) and Competitive Chemical Cross-linking and Isolation by Pull-Down (C-Chem-CLIP): Approximately 10,000 counts of ^32P 5′-end labeled r(G4C2)8 was folded in 1×Folding Buffer at 95° C. for 1 min. After cooling to room temperature, the Chem-CLIP probe at the desired concentrations (5, 10, 100, 500, 1000, 5000, 10000 nM) was added, and the samples were incubated at 37° C. for 18 h. For C-Chem-CLIP studies, the parent compound (10, 100, 500, 1000, 5000, 10000 nM) was incubated with RNA for 1 h before addition of the Chem-CLIP probe (500 nM).
Cross-linked RNAs were clicked to biotin […] azide (10 μL of a 5 mM stock solution in DMSO) by incubating in a solution containing 25 mM HEPES (pH 7.1), 250 mM sodium ascorbate, 10 mM CuSO4, and 50 mM THPTA (tris-hydroxypropyltriazolylmethylamine) for 6 h at 37° C. A 300 μL of streptavidin-agarose beads (Sigma-Aldrich) was washed three times and then resuspended in 1×PBS. An aliquot (20 μL) of the slurry was added to each sample, which was incubated for 1 h at room temperature. The samples were centrifuged and the supernatant containing unbound RNA was transferred to an unused tube. The beads were then washed three times with 1×PBS supplemented with 0.10% (v/v) Tween-20 and centrifuged, with each wash supernatant being added to the tube containing unbound RNA. The amounts of radioactivity in the supernatant and associated with the beads were quantified with a Beckman Coulter LS6500 Liquid Scintillation Counter.

| Structure (SMILES) | abundance of poly(GP) [1] | C-Chem-CLIP, RNA pulled down by 4 [2] |
| --- | --- | --- |
| CCOC(=O)C1=C(Nc2ccccc2)S/C(=C\c2ccc(OCCOCCOCCOCCNC(=O)CCC(=O)N(CCOCCOCCOc3ccc4[nH]c5c(C)c6ccncc6c(C)c5c4c3)CCOCCOCCOc3ccc4[nH]c5c(C)c6ccncc6c(C)c5c4c3)c(O)c2)C1=O [Compound 7] | significant (P<0.05) reduction |  |
| Cc1c2ccncc2c(C)c2c1[nH]c1ccc(OCCOCCOCCNCCOCCOCCOc3ccc4[nH]c5c(C)c6ccncc6c(C)c5c4c3)cc12 [Compound 3] |  | reduced the percentage of RNA pulled down in a dose dependent fashion |
